Data from patent US5137900A, “Therapeutic virginiamycin M1 analogs” (Merck & Co., Inc., priority 1991, dated 1992).

Experiments:
Pancreatic CCK receptor = target: T1, Pancreatic CCK receptor (Rattus norvegicus, UniProt P30551); assay: Pancreatic cholecystokinin receptor binding assay (125I-CCK-8); conditions: rat pancreas membranes, 37° C., 30 minutes
T1 construct: Pancreatic receptor membranes were prepared; from tissue; host or cells: rat pancreas membranes
T1 sequence (P30551 1-444): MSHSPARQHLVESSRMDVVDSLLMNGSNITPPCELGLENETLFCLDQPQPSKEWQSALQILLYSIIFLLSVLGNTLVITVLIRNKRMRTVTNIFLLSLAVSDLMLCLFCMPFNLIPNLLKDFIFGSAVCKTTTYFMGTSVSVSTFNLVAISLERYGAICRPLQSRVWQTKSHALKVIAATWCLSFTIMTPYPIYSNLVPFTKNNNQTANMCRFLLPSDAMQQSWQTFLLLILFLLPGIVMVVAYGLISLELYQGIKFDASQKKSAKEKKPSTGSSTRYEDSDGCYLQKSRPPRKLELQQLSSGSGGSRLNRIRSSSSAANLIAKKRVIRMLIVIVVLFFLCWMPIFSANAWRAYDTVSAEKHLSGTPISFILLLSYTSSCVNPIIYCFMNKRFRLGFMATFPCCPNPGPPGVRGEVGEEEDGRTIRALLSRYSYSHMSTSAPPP
Method: Radiolabeled CCK-8 was purchased from New England Nuclear as ^125 I-CCK-8 Receptor binding was performed according to Innis and Snyder Proc. Natl. Acad. Sci., 77, 6917 (1980), with the minor modification of adding the additional protease inhibitors, phenylmethane sulfonyl fluoride (PMSF) and o-phenanthroline, which have no effect on the ^125 I-CCK receptor binding assay. All assays were performed in triplicate. Pancreatic receptor membranes were prepared by homogenzing a gram of fresh rat pancreas tissue in 30 ml TRIS-HCl (50 mM), pH 7.7 using a Brinkman polytron PT10 (Brinkman). The homogenate was washed twice and collected by centrifugation at 48,000×g at 4° C. for 10 minutes. The membranes were resuspended in assay buffer consisting of 5 mM dithiothieitol, 0.1 mM bacitiacin, 5 mM MgCl2.H2 O, 0.2% heat denatured BSA, 1.2 mM PMSF and 0.5 mM O-phenanthroline at a concentration of 100 ml per gram of pancreas. […] The reaction mixtures were mixed briefly and placed in a 37° C. water bath with gentle shaking for 30 minutes. The reaction mixtures were then diluted with 4 ml of ice-cold TRIS buffer, pH 7.7, containing 1 mg/ml bovine serum albumin and immediately filtered in Watman G F/B filters. The filters were washed with 3×4 ml of the same buffer and the radioactivity associated with the filters was counted in a Beckman Gamma 5500 counter. Broths were prepared by adding two volumes of acetone to original broth; supernatants were freeze dried after centrifugation at 1500 g for 10 minutes. The dried samples were then brought up in methanol/H2 O (1:1) and ready for assay.

[1] = cited from earlier work
gastric acid secretion = conditions: cited from earlier work

Compound	IC50 (Pancreatic CCK receptor) [µM]	further results
C-terminal octapeptide: C-terminal octapeptide of CCK	–	efficacy relative to CCK-33 ([1]; compared with CCK-33): same efficacy; potency relative to CCK-33 ([1]; more potent than CCK-33): approximately ten
Gastrin-17	–	potency relative to Gastrin-13 (gastric acid secretion; more potent than Gastrin-13, gastric acid secretion): 2.5 times; potency relative to Gastrin-34 (gastric acid secretion; more potent than Gastrin-34, gastric acid secretion): 5 times

Now from value to compound, other results behind:

IC50 (Pancreatic CCK receptor) [µM]	Compound	further results
> 10	CC1=C\C=C\C(=O)Cc2nc(co2)C(=O)N2CCC=C2C(=O)O[C@H](C(C)C)[C@H](C)/C=C/C(=O)NC\C=C\1 [Compound III]	–
> 10	CC1=C\C=C\[C@H](O)Cc2nc(co2)C(=O)N2CCC=C2C(=O)O[C@H](C(C)C)[C@H](C)/C=C/C(=O)NC\C=C\1 [Compound II]	–
> 10	CC1=C\C=C\[C@@H](O)Cc2nc(co2)C(=O)N2CCC=C2C(=O)O[C@H](C(C)C)[C@H](C)/C=C/C(=O)NC\C=C\1 [Compound I]	–
> 100	CC1=C\[C@@H](O)CC(=O)Cc2nc(co2)C(=O)N2CCC=C2C(=O)O[C@H](C(C)C)[C@H](C)/C=C/C(=O)NC\C=C\1 [Virginiamycin M1]	–
